Measurements: ChEMBL document CHEMBL5634176, “Expression of Syo_1.56 SARP Regulator Unveils Potent Elasnin Derivatives with Antibacterial Activity” (J Nat Prod, 2024)
Values after ≈ are worked out from the molar mass of the structure shown. Active and inactive are the calls of the source. The calls are words filed in the database; no cut-off is given here.

Assays:
Staphylococcus aureus [1] = experiment: Antibacterial activity against Staphylococcus aureus 209 incubated for 24 hrs by absorbance based analysis; format: functional, organism-based; conditions: Staphylococcus aureus, 209, 24 h
Escherichia coli [2] = experiment: Antibacterial activity against Escherichia coli HO141 incubated for 24 hrs by absorbance based analysis; format: functional, organism-based; conditions: HO141, 24 h
Plasmodium falciparum = experiment: Antimalarial activity against Plasmodium falciparum 3D7 infected in human erythrocytes measured after 72 hrs by absorbance based analysis; format: functional, organism-based; conditions: 3D7, 72 h
[3] = Cytotoxicity against human HeLa cells incubated for 48 hrs by WST-8 assay; format: toxicity, cell-based
[4] = Cytotoxicity against human HL-60 cells incubated for 48 hrs by WST-8 assay; format: toxicity, cell-based
Staphylococcus aureus [5] = experiment: Antibacterial activity against methicillin sensitive Staphylococcus aureus FDA209P by CLSI protocol based assay; format: functional
Staphylococcus aureus [6] = experiment: Antibacterial activity against methicillin resistant Staphylococcus aureus 92-1191 by CLSI protocol based assay; format: functional
Staphylococcus aureus [7] = experiment: Antibacterial activity against methicillin resistant Staphylococcus aureus ATCC BAA-1717 by CLSI protocol based assay; format: functional
Staphylococcus aureus [8] = experiment: Antibacterial activity against methicillin resistant Staphylococcus aureus ATCC BAA-1718 by CLSI protocol based assay; format: functional
Staphylococcus aureus [9] = experiment: Antibacterial activity against methicillin resistant Staphylococcus aureus NCTC8173 by CLSI protocol based assay; format: functional
[10] = Inhibition of metallo-beta lactamase (unknown origin) by nitrocefin method; design: species or system Bacteria
Escherichia coli [11] = experiment: Potentiation of meropenem induced antibacterial activity against drug-resistant Escherichia coli KB366 expressing metallo-betalactamase by agar disk diffusion method; format: functional, organism-based

Row | SMILES | IC50 (Staphylococcus aureus [1]) | IC50 (Escherichia coli [2]) | IC50 (Plasmodium falciparum) | IC50 at 48 h [3] | IC50 at 48 h [4] | MIC (Staphylococcus aureus [5]) | MIC (Staphylococcus aureus [6]) | MIC (Staphylococcus aureus [7]) | MIC (Staphylococcus aureus [8]) | MIC (Staphylococcus aureus [9]) | IC50 [10] | Activity (Escherichia coli [11])
1 | CCCCCc1oc(=O)c(CCCC)c(O)c1CCCC | 1.3 µg/mL (≈ 4.42 µM) | > 10 µg/mL | 1.9 µg/mL (≈ 6.45 µM) | > 10 µg/mL | > 10 µg/mL | 15 µg/mL (≈ 50.9 µM) | 15 µg/mL (≈ 50.9 µM) | 15 µg/mL (≈ 50.9 µM) | 15 µg/mL (≈ 50.9 µM) | 15 µg/mL (≈ 50.9 µM) | > 100 µM | 
2 | CCCCCC(=O)[C@@H](CCC(C)C)c1oc(=O)c(CCCC)c(O)c1CCCC | 0.5 µg/mL (≈ 1.23 µM) | > 10 µg/mL | 6.9 µg/mL (≈ 17 µM) | 9.7 µg/mL (≈ 23.9 µM) | 9.7 µg/mL (≈ 23.9 µM) | 5 µg/mL (≈ 12.3 µM) | 5 µg/mL (≈ 12.3 µM) | 2.5 µg/mL (≈ 6.15 µM) | 5 µg/mL (≈ 12.3 µM) | 2.5 µg/mL (≈ 6.15 µM) | > 100 µM | 
3 | C[C@@H](O)[C@H]1C(=O)N2C(C(=O)O)=C(S[C@@H]3CN[C@H](C(=O)N(C)C)C3)[C@H](C)[C@H]12 [MEROPENEM] |  |  |  |  |  | 0.031 µg/mL (≈ 0.0808 µM) | 256 µg/mL (≈ 668 µM) | 16 µg/mL (≈ 41.7 µM) | 0.125 µg/mL (≈ 0.326 µM) | 0.125 µg/mL (≈ 0.326 µM) |  | 
4 | CCCCc1c([C@H](CCC(C)C)C(=O)CCCC(C)C)oc(=O)c(CCCC)c1O | 0.5 µg/mL (≈ 1.19 µM) | > 10 µg/mL | 7.7 µg/mL (≈ 18.3 µM) | 8.9 µg/mL (≈ 21.2 µM) | 9.3 µg/mL (≈ 22.1 µM) | 5 µg/mL (≈ 11.9 µM) | 5 µg/mL (≈ 11.9 µM) | 2.5 µg/mL (≈ 5.94 µM) | 2.5 µg/mL (≈ 5.94 µM) | 2.5 µg/mL (≈ 5.94 µM) | > 100 µM | 
5 | CCCCc1c([C@H](CCCC)C(=O)CCCC(C)C)oc(=O)c(CCC(C)C)c1O | 1.1 µg/mL (≈ 2.62 µM) | > 10 µg/mL | 0.1 µg/mL (≈ 0.238 µM) | 8.4 µg/mL (≈ 20 µM) | 8.4 µg/mL (≈ 20 µM) | 3 µg/mL (≈ 7.13 µM) | 6 µg/mL (≈ 14.3 µM) | 3 µg/mL (≈ 7.13 µM) | 3 µg/mL (≈ 7.13 µM) | 3 µg/mL (≈ 7.13 µM) | 15.3 µM | inactive
6 | CCCCCCc1c(O)c(CCCC)c([C@H](CCCC)C(=O)CCCCC)oc1=O | 0.8 µg/mL (≈ 1.9 µM) | > 10 µg/mL | 8 µg/mL (≈ 19 µM) | 7.6 µg/mL (≈ 18.1 µM) | 8.4 µg/mL (≈ 20 µM) | 2.5 µg/mL (≈ 5.94 µM) | 2.5 µg/mL (≈ 5.94 µM) | 2.5 µg/mL (≈ 5.94 µM) | 2.5 µg/mL (≈ 5.94 µM) | 2.5 µg/mL (≈ 5.94 µM) | > 100 µM | 
7 | CCCCCCCc1oc(=O)c(CCCC)c(O)c1CCCC | 2.6 µg/mL (≈ 8.06 µM) | > 10 µg/mL | 0.1 µg/mL (≈ 0.31 µM) | > 10 µg/mL | > 10 µg/mL | 16 µg/mL (≈ 49.6 µM) | 8.1 µg/mL (≈ 25.1 µM) | 16 µg/mL (≈ 49.6 µM) | 8.1 µg/mL (≈ 25.1 µM) | 8.1 µg/mL (≈ 25.1 µM) | > 100 µM | 
8 | CCCCCC(=O)[C@@H](CCCC)c1oc(=O)c(CCCC)c(O)c1CCCC | 0.7 µg/mL (≈ 1.78 µM) | > 10 µg/mL | 2.3 µg/mL (≈ 5.86 µM) | > 10 µg/mL | > 10 µg/mL | 5 µg/mL (≈ 12.7 µM) | 5 µg/mL (≈ 12.7 µM) | 5 µg/mL (≈ 12.7 µM) | 5 µg/mL (≈ 12.7 µM) | 5 µg/mL (≈ 12.7 µM) | 24.1 µM | inactive
9 | CCCCc1c([C@H](CCCC)C(=O)CCC(C)C)oc(=O)c(CCCC)c1O | 1 µg/mL (≈ 2.55 µM) | > 10 µg/mL | 9.4 µg/mL (≈ 23.9 µM) | > 10 µg/mL | > 10 µg/mL | 10 µg/mL (≈ 25.5 µM) | 10 µg/mL (≈ 25.5 µM) | 5 µg/mL (≈ 12.7 µM) | 5 µg/mL (≈ 12.7 µM) | 5 µg/mL (≈ 12.7 µM) | > 100 µM | 
10 | CCCCCC(=O)[C@@H](CCCC)c1oc(=O)c(CCC(C)C)c(O)c1CCCC | 0.7 µg/mL (≈ 1.72 µM) | > 10 µg/mL | 1.3 µg/mL (≈ 3.2 µM) | 7.3 µg/mL (≈ 18 µM) | 4.9 µg/mL (≈ 12.1 µM) | 6 µg/mL (≈ 14.8 µM) | 6 µg/mL (≈ 14.8 µM) | 6 µg/mL (≈ 14.8 µM) | 3 µg/mL (≈ 7.38 µM) | 3 µg/mL (≈ 7.38 µM) | 10.8 µM | inactive
11 | CCCCCC(=O)[C@@H](CCCC)c1oc(=O)c(CC(C)C)c(O)c1CCCC | 1.6 µg/mL (≈ 4.08 µM) | > 10 µg/mL | > 10 µg/mL | > 10 µg/mL | > 10 µg/mL | 10 µg/mL (≈ 25.5 µM) | 20 µg/mL (≈ 50.9 µM) | 10 µg/mL (≈ 25.5 µM) | 10 µg/mL (≈ 25.5 µM) | 10 µg/mL (≈ 25.5 µM) | > 100 µM | 
12 | C[C@H](CS)C(=O)N1CCC[C@H]1C(=O)O [CAPTOPRIL] |  |  |  |  |  |  |  |  |  |  | 69 µM | 
13 | CCCCc1c(CCCC(C)C)oc(=O)c(CCCC)c1O | 1.3 µg/mL (≈ 4.21 µM) | > 10 µg/mL | > 10 µg/mL | > 10 µg/mL | > 10 µg/mL | 15 µg/mL (≈ 48.6 µM) | 15 µg/mL (≈ 48.6 µM) | 7.7 µg/mL (≈ 25 µM) | 7.5 µg/mL (≈ 24.3 µM) | 7.5 µg/mL (≈ 24.3 µM) | > 100 µM | 
14 | CCCCc1c(O)c(CCC(C)C)c([C@H](CCCC)C(=O)CCCC(C)C)oc1=O | 0.5 µg/mL (≈ 1.19 µM) | > 10 µg/mL | 6.3 µg/mL (≈ 15 µM) | 6.3 µg/mL (≈ 15 µM) | 5.5 µg/mL (≈ 13.1 µM) | 2.5 µg/mL (≈ 5.94 µM) | 2.5 µg/mL (≈ 5.94 µM) | 2.5 µg/mL (≈ 5.94 µM) | 2.5 µg/mL (≈ 5.94 µM) | 2.5 µg/mL (≈ 5.94 µM) | > 100 µM | 
